From patent US10294202B2, “Pyrrolidinones as herbicides” (FMC Corporation, priority 2013, dated 2019)
Values joined by “and” are separate entries in the source; they are usually repeats but may differ in a detail not shown here. Equal values may be shown once.

Key:
corn (ZEAMD) = experiment: Test H preemergence mixture test (Colby); format: in vivo, Zea mays; conditions: applied alone, 21 d, mean of three replicates, scale 0-100
Description: (§1) Colby's Equation was used to determine the herbicidal effects expected from the mixtures. Colby's Equation (Colby, S. R. “Calculating Synergistic and Antagonistic Responses of Herbicide Combinations,” Weeds, 15(1), pp 20-22 (1967)) calculates the expected additive effect of herbicidal mixtures and for two active ingredients is of the form: Pa+b=Pa+Pb−(PaPb/100)
(§2) where • Pa+b is the percentage effect of the mixture expected from additive contribution of the individual components: • Pa is the observed percentage effect of the first active ingredient at the same use rate as in the mixture, and • Pb is the observed percentage effect of the second active ingredient at the same use rate as in the mixture. In the following Tables, rates are shown in grams of active ingredient per hectare (g a.i./ha); “Obsd.” is the observed effect. “Exp.” is the expected effect calculated from Colby's Equation.
(§3) This test evaluated the effect of mixtures of compound 80 with several commercial herbicides on four plant species. Seeds of plant species selected from corn (ZEAMD, Zea mays), soybean (GLXMA, Glycine max), waterhemp (common waterhemp, AMATA, Amaranthus rudis), and giant foxtail (SETFA, Setaria faberii) were planted into a silt loam soil and treated preemergence with test chemicals formulated in a non-phytotoxic solvent mixture which included a surfactant and applied using a volume of 281 L/ha. Each treatment was replicated three times. Treated plants and controls were maintained in a greenhouse using supplemental lighting to maintain a photoperiod of about 16 h; daytime and nighttime temperatures were about 24-30° C. and 19-21° C., respectively. Nutrients were applied using a balanced fertilizer applied through the watering system. At 21 d after treatment, all species were compared to controls and visually evaluated. Plant response ratings were calculated as the means of the three replicates, are summarized in Tables H1 through H5, and are based on a scale of 0 to 100 where 0 is no effect and 100 is complete control. A dash (-) response means no test result. The Expected (Exp.) results were calculated using Colby's Equation as described for Test G above.

soybean (GLXMA) = experiment: Test H preemergence mixture test (Colby); format: in vivo, Glycine max; conditions: applied alone, 21 d, mean of three replicates, scale 0-100
Description: as §1, §2, §3

waterhemp (AMATA) = experiment: Test H preemergence mixture test (Colby); format: in vivo, Amaranthus rudis; conditions: applied alone, 21 d, mean of three replicates, scale 0-100
Description: as §1, §2, §3

giant foxtail (SETFA) = experiment: Test H preemergence mixture test (Colby); format: in vivo, Setaria faberii; conditions: applied alone, 21 d, mean of three replicates, scale 0-100
Description: as §1, §2, §3

[1] = tested on: small-flower umbrella sedge (CYPDI); experiment: Test G paddy mixture test (Colby); format: in vivo, Cyperus difformis; conditions: applied alone, 20 g a.i./ha; 14 d; scale 0-100
Description: (§4) Seeds of small-flower umbrella […], Cyperus difformis) and […], Heteranthera limosa) were sown on the soil surface in two separate quadrants of 11-cm (4-inch) tubs filled with steam pasteurized Tama soil. Simultaneously, plantings of […], Echinochloa crus-galli) and transplanted japonica rice (ORYSA, Oryza sativa) were established in separate “plug” flats. […] Herbicide application timing was targeted at the 2.0 to 2.5 leaf stage and the plants were treated with test chemicals formulated in a non-phytotoxic solvent. Treated plants and controls were maintained in a greenhouse for 14 d, after which time all species were compared to controls and visually evaluated. Plant response ratings are summarized in Tables G1 through G12, and are based on a scale of 0 to 100 where 0 is no effect and 100 is complete control. A dash (-) response means no test result. Colby's Equation was used to determine the herbicidal effects expected from the mixtures. […] “Exp.” is the expected effect calculated from Colby's Equation.

ducksalad (HETLI) = experiment: Test G paddy mixture test (Colby); format: in vivo, Heteranthera limosa; conditions: applied alone, 20 g a.i./ha; 14 d; scale 0-100
Description: as §4

barnyardgrass (ECHCG) = experiment: Test G paddy mixture test (Colby); format: in vivo, Echinochloa crus-galli; conditions: applied alone, 20 g a.i./ha; 14 d; scale 0-100
Description: as §4

SMILES: CCNc1nc(Cl)nc(NC(C)C)n1 [Atrazine]
- ZEAMD Obsd. (corn (ZEAMD); 62 g a.i./ha): 0
- ZEAMD Obsd. (corn (ZEAMD); 125 g a.i./ha): 0
- GLXMA Obsd. (soybean (GLXMA); 62 g a.i./ha): 13
- GLXMA Obsd. (soybean (GLXMA); 125 g a.i./ha): 48
- AMATA Obsd. (waterhemp (AMATA); 62 g a.i./ha): 33
- AMATA Obsd. (waterhemp (AMATA); 125 g a.i./ha): 90
- SETFA Obsd. (giant foxtail (SETFA); 62 g a.i./ha): 0
- SETFA Obsd. (giant foxtail (SETFA); 125 g a.i./ha): 8

SMILES: COC(=O)c1ccccc1CS(=O)(=O)NC(=O)Nc1nc(OC)cc(OC)n1 [Bensulfuron-methyl]
- CYPDI Obsd. [1]: 100 and 98
- HETLI Obsd. (ducksalad (HETLI)): 100
- ECHCG Obsd. (barnyardgrass (ECHCG)): 65

SMILES: CCOC(=O)c1ccccc1S(=O)(=O)NC(=O)Nc1nc(Cl)cc(OC)n1 [Chlorimuron-ethyl]
- ZEAMD Obsd. (corn (ZEAMD); 1 g a.i./ha): 22
- ZEAMD Obsd. (corn (ZEAMD); 31 g a.i./ha): 73
- GLXMA Obsd. (soybean (GLXMA); 1 g a.i./ha): 0
- GLXMA Obsd. (soybean (GLXMA); 31 g a.i./ha): 22
- AMATA Obsd. (waterhemp (AMATA); 1 g a.i./ha): 47
- AMATA Obsd. (waterhemp (AMATA); 31 g a.i./ha): 89
- SETFA Obsd. (giant foxtail (SETFA); 1 g a.i./ha): 0
- SETFA Obsd. (giant foxtail (SETFA); 31 g a.i./ha): 47
